# Measurements: patent US12527774B2, “Estrogen-related receptor alpha modulators” (LEAD PHARMA HOLDING B.V., priority 2019, dated 2026)
# Target: ERRα ligand binding domain (ERRα-LBD) (Homo sapiens (Human), UniProt P11474)
# Experiment: ERRα AlphaScreen Assay
# Format: biochemical
# Settings: disruption of binding of ERRα-LBD protein to biotin-PGC1α-3 co-activator peptide
# Summary of the method: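 His-SUMO-tagged ERRα-LBD from E. coli (0.81 nM) preincubated 1 h at room temperature with compound, streptavidin donor and Ni-chelate acceptor beads (10 μg/mL each), then 2 h with 15 nM biotin-PGC1α-3 peptide (aa 202–220). Buffer: 50 mM Tris-HCl pH 7.5, 100 mM NaCl, 5 mM TCEP, 1% DMSO. Four-parameter IC50; mean pIC50 of replicate values.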
# ERRα ligand binding domain (ERRα-LBD), sequence (P11474 193-421): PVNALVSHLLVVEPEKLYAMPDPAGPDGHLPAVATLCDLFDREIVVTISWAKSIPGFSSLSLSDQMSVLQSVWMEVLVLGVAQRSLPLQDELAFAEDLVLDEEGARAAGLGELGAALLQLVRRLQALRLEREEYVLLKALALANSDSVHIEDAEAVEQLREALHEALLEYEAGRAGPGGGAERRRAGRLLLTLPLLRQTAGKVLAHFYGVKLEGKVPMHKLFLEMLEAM
row,mean pIC50,SMILES
1,≥ 8,"COc1cc(C2CC(=O)Nc3n[nH]cc32)ccc1OCc1ccc(O)cc1C(F)(F)F (stereo not drawn) [Example 154, 4-(4-{[4-hydroxy-2-(trifluoromethyl)phenyl]methoxy}-3-methoxyphenyl)-2H,4H,5H,6H, 7H-pyrazolo[3,4-b]pyridin-6-one]"
2,≥ 8,"COC(=O)c1ccc(COc2ccc(C3CC(=O)Nc4n[nH]cc43)cc2OC)c(C(F)(F)F)c1 (stereo not drawn) [Example 42, methyl 4-[(2-methoxy-4-{6-oxo-2H,4H,5H,6H,7H-pyrazolo[3,4-b]pyridin-4-yl}phenoxy)methyl]-3-(trifluoromethyl)benzoate]"
3,≥ 8,"COc1cc(C2CC(=O)Nc3n[nH]nc32)ccc1OCc1ccc(N)cc1C(F)(F)F (stereo not drawn) [Example 136, 7-(4-{[4-amino-2-(trifluoromethyl)phenyl]methoxy}-3-methoxyphenyl)-2H,4H,5H,6H, 7H-[1,2,3]triazolo[4,5-b]pyridin-5-one]"
4,≥ 8,"COc1cc(C2CC(=O)Nc3n[nH]cc32)ccc1OCc1ccc(N)cc1C(F)(F)F (stereo not drawn) [Example 135, 4-(4-{[4-amino-2-(trifluoromethyl)phenyl]methoxy}-3-methoxyphenyl)-2H,4H,5H,6H, 7H-pyrazolo[3,4-b]pyridin-6-one]"

# Same assay, conditions: disruption of binding of ERRα-LBD protein to biotin-PGC1α-3 co-activator peptide; read-out: mean pIC50 (converted)
row,IC50 [µM],SMILES
1,0.01 to 0.1,"CCOC(=O)c1cc(C2CC(=O)Nc3n[nH]cc32)ccc1OCc1ccccc1C(F)(F)F (stereo not drawn) [Example 128, ethyl 5-{6-oxo-2H,4H,5H,6H,7H-pyrazolo[3,4-b]pyridin-4-yl}-2-{[2-(trifluoromethyl)phenyl]methoxy}benzoate]"
2,0.1 to 1,"CN(C)c1cc(OCc2ccccc2C(F)(F)F)ccc1C1CC(=O)Nc2n[nH]cc21 (stereo not drawn) [Example 162, 4-[2-(dimethylamino)-4-{[2-(trifluoromethyl)phenyl]methoxy}phenyl]-2H,4H,5H,6H, 7H-pyrazolo[3,4-b]pyridin-6-one]"
3,0.1 to 1,"COc1cc(C2CC(=O)Nc3n[nH]cc32)cc(F)c1OCc1ccccc1C(F)(F)F (stereo not drawn) [Example 78, 4-(3-fluoro-5-methoxy-4-{[2-(trifluoromethyl)phenyl]methoxy}phenyl)-2H,4H,5H,6H, 7H-pyrazolo[3,4-b]pyridin-6-one]"
4,0.1 to 1,"Nc1cc(C2CC(=O)Nc3n[nH]cc32)ccc1OCc1ccccc1C(F)(F)F (stereo not drawn) [Example 161, 4-(3-amino-4-{[2-(trifluoromethyl)phenyl]methoxy}phenyl)-2H,4H,5H,6H, 7H-pyrazolo[3,4-b]pyridin-6-one]"
5,0.01 to 0.1,"COc1cc(C2CC(=O)Nc3c[nH]nc32)ccc1OCc1ccccc1C(F)(F)F (stereo not drawn) [Example 87, 7-(3-methoxy-4-{[2-(trifluoromethyl)phenyl]methoxy}phenyl)-2H,4H,5H,6H, 7H-pyrazolo[4,3-b]pyridin-5-one]"
6,0.1 to 1,"COc1cc(C2CC(=O)Nc3n[nH]c(C)c32)ccc1OCc1ccccc1C(F)(F)F (stereo not drawn) [Example 82, 4-(3-methoxy-4-{[2-(trifluoromethyl)phenyl]methoxy}phenyl)-3-methyl-2H,4H,5H,6H,7H-pyrazolo[3,4-b]pyridin-6-one]"
7,0.1 to 1,"COc1ccccc1COc1ccc(C2CC(=O)Nc3n[nH]cc32)cc1OC (stereo not drawn) [Example 30, 4-{3-methoxy-4-[(2-methoxyphenyl)methoxy]phenyl}-2H,4H,5H,6H,7H-pyrazolo[3,4-b]pyridin-6-one]"
8,0.1 to 1,"COc1cc(C2CC(=O)Nc3n[nH]cc32)ccc1OCc1cccc2c1OCCCO2 (stereo not drawn) [Example 51, 4-{4-[(3,4-dihydro-2H-1,5-benzodioxepin-6-yl)methoxy]-3-methoxyphenyl}-2H,4H,5H, 6H, 7H-pyrazolo[3,4-b]pyridin-6-one]"
9,0.01 to 0.1,"COc1cc(C2CC(=O)Nc3n[nH]cc32)ccc1COc1ccc(C(F)F)cc1C(F)F (stereo not drawn) [Example 116, 4-(4-{[2,4-bis(difluoromethyl)phenoxy]methyl}-3-methoxyphenyl)-2H,4H,5H,6H,7H-pyrazolo[3,4-b]pyridin-6-one]"
10,0.1 to 1,"COc1cc(Br)c(COc2ccc(-c3cc(=O)[nH]c4n[nH]cc34)cc2OC)cc1OC [Example 184, 4-{4-[(2-bromo-4,5-dimethoxyphenyl)methoxy]-3-methoxyphenyl}-2H,6H, 7H-pyrazolo[3,4-b]pyridin-6-one]"
11,0.01 to 0.1,"COc1cc(C2CC(=O)Nc3n[nH]cc32)ccc1OCc1ccccc1OC(F)F (stereo not drawn) [Example 17, 4-(4-{[2-(difluoromethoxy)phenyl]methoxy}-3-methoxyphenyl)-2H,4H,5H,6H,7H-pyrazolo[3,4-b]pyridin-6-one]"
12,0.1 to 1,"COc1cc(C2CC(=O)N(C)c3n[nH]cc32)ccc1OCc1ccccc1C(F)(F)F (stereo not drawn) [Example 86, 4-(3-methoxy-4-{[2-(trifluoromethyl)phenyl]methoxy}phenyl)-7-methyl-2H,4H,5H,6H,7H-pyrazolo[3,4-b]pyridin-6-one]"
13,0.01 to 0.1,"COc1cc(C2CC(=O)Nc3n[nH]cc32)ccc1COc1ccc(C(F)F)cc1C(F)(F)F (single isomer, unassigned; (+)) [Example 195, (+)-4-(4-{[4-(difluoromethyl)-2-(trifluoromethyl)phenoxy]methyl}-3-methoxyphenyl)-2H,4H,5H,6H,7H-pyrazolo[3,4-b]pyridin-6-one]"
14,0.01 to 0.1,"O=C1CC(c2ccc(OCc3ccccc3C(F)(F)F)c(F)c2)c2c[nH]nc2N1 (stereo not drawn) [Example 74, 4-(3-fluoro-4-{[2-(trifluoromethyl)phenyl]methoxy}phenyl)-2H,4H,5H,6H, 7H-pyrazolo[3,4-b]pyridin-6-one]"
15,0.01 to 0.1,"COc1cc(C2CC(=O)Nc3n[nH]cc32)ccc1COc1ccc(Cl)cc1C(F)(F)F (single isomer, unassigned; (+)) [Example 193, (+)-4-(4-{[4-chloro-2-(trifluoromethyl)phenoxy]methyl}-3-methoxyphenyl)-2H,4H,5H,6H,7H-pyrazolo[3,4-b]pyridin-6-one]"
16,0.01 to 0.1,"COc1cc(C2CC(=O)Nc3n[nH]cc32)ccc1COc1ccc(C(F)(F)F)cc1C(F)F (stereo not drawn) [Example 117, 4-(4-{[2-(difluoromethyl)-4-(trifluoromethyl)phenoxy]methyl}-3-methoxyphenyl)-2H,4H,5H,6H, 7H-pyrazolo[3,4-b]pyridin-6-one]"
17,0.1 to 1,"COc1cc(C2CC(=O)Nc3n[nH]cc32)ccc1COc1ccc(C(F)F)cc1C(F)F (single isomer, unassigned; (+)) [Example 217, (+)-4-(4-{[2,4-bis(difluoromethyl)phenoxy]methyl}-3-methoxyphenyl)-2H,4H,5H,6H,7H-pyrazolo[3,4-b]pyridin-6-one]"
18,0.1 to 1,"COc1cc(C2CC(=O)Nc3n[nH]cc32)ccc1OCc1cccc(OC)c1OC (stereo not drawn) [Example 39, 4-{4-[(2,3-dimethoxyphenyl)methoxy]-3-methoxyphenyl}-2H,4H,5H,6H,7H-pyrazolo[3,4-b]pyridin-6-one]"
19,0.01 to 0.1,"COc1cc(C2CC(=O)Nc3n[nH]cc32)ccc1OCc1cccc2ccsc12 (stereo not drawn) [Example 45, 4-{4-[(1-benzothiophen-7-yl)methoxy]-3-methoxyphenyl}-2H,4H,5H,6H, 7H-pyrazolo[3,4-b]pyridin-6-one]"
20,0.1 to 1,"COc1cc(C2CC(=O)Nc3n[nH]cc32)ccc1OCc1c(F)cccc1C(F)(F)F (stereo not drawn) [Example 21, 4-(4-{[2-fluoro-6-(trifluoromethyl)phenyl]methoxy}-3-methoxyphenyl)-2H,4H,5H,6H,7H-pyrazolo[3,4-b]pyridin-6-one]"
21,0.1 to 1,"COc1cc(C2CC(=O)Nc3n[nH]cc32)c(F)cc1OCc1cccc(F)c1C(F)(F)F (stereo not drawn) [Example 77, 4-(2-fluoro-4-{[3-fluoro-2-(trifluoromethyl)phenyl]methoxy}-5-methoxyphenyl)-2H,4H,5H,6H,7H-pyrazolo[3,4-b]pyridin-6-one]"
22,0.1 to 1,"COc1cc(C2CC(=O)Nc3n[nH]cc32)ccc1OCc1ccccc1C(=O)OC(C)C (stereo not drawn) [Example 127, propan-2-yl 2-(2-methoxy-4-{6-oxo-2H,4H,5H,6H,7H-pyrazolo[3,4-b]pyridin-4-yl}phenoxymethyl)benzoate]"
23,0.1 to 1,"COc1cc(C2CC(=O)Nc3n[nH]cc32)ccc1OCc1ccccc1[N+](=O)[O-] (stereo not drawn) [Example 18, 4-{3-methoxy-4-[(2-nitrophenyl)methoxy]phenyl}-2H,4H,5H,6H, 7H-pyrazolo[3,4-b]pyridin-6-one]"
24,0.1 to 1,"COc1cc(C2CC(=O)Nc3n[nH]cc32)ccc1COc1cc(C)cc(C)c1 (stereo not drawn) [Example 113, 4-{4-[(3,5-dimethylphenoxy)methyl]-3-methoxyphenyl}-2H,4H,5H,6H,7H-pyrazolo[3,4-b]pyridin-6-one]"
25,0.01 to 0.1,"O=C1CC(c2ccc(OCc3ccccc3C(F)(F)F)c(OC(F)(F)F)c2)c2c[nH]nc2N1 (stereo not drawn) [Example 69, 4-[3-(trifluoromethoxy)-4-{[2-(trifluoromethyl)phenyl]methoxy}phenyl]-2H,4H,5H, 6H, 7H-pyrazolo[3,4-b]pyridin-6-one]"
26,0.01 to 0.1,"COc1ccc(COc2ccc(C3CC(=O)Nc4[nH]nnc43)cc2OC)c(C(F)(F)F)c1 (single isomer, unassigned; (+)) [Example 201, (+)-7-(3-methoxy-4-{[4-methoxy-2-(trifluoromethyl)phenyl]methoxy}phenyl)-3H,4H,5H,6H,7H-[1,2,3]triazolo[4,5-b]pyridin-5-one]"
27,0.1 to 1,"COc1cc(C2CC(=O)Nc3ncsc32)ccc1OCc1ccccc1C(F)(F)F (stereo not drawn) [Example 88, 7-(3-methoxy-4-{[2-(trifluoromethyl)phenyl]methoxy}phenyl)-4H,5H,6H,7H-[1,3]thiazolo[4,5-b]pyridin-5-one]"
28,0.1 to 1,"COc1cc(C2CC(=O)Nc3n[nH]cc32)ccc1OCc1ccccc1C(F)F (stereo not drawn) [Example 49, 4-(4-{[2-(difluoromethyl)phenyl]methoxy}-3-methoxyphenyl)-2H,4H,5H,6H, 7H-pyrazolo[3,4-b]pyridin-6-one]"
29,0.1 to 1,"COc1cc(C2CC(=O)Nc3n[nH]c(F)c32)ccc1OCc1ccccc1C(F)(F)F (stereo not drawn) [Example 95, 3-fluoro-4-(3-methoxy-4-{[2-(trifluoromethyl)phenyl]methoxy}phenyl)-2H,4H,5H,6H, 7H-pyrazolo[3,4-b]pyridin-6-one]"
